Test results taken from ChEMBL document CHEMBL1150977, “A quantitative analysis of kinase inhibitor selectivity” (Nat Biotechnol, 2008).

Columns and labels:
[1] = target: Epidermal growth factor receptor (Homo sapiens, UniProt P00533, L747-T751DEL)
[2] = target: Epidermal growth factor receptor (Homo sapiens, UniProt P00533, G719S)
[3] = target: Cyclin-dependent kinase 9 (Homo sapiens, UniProt P50750)
[4] = target: Epidermal growth factor receptor (Homo sapiens, UniProt P00533, A750P/L747-E749DEL)

Structure (SMILES)	Kd [1] [µM]	Kd [2] [µM]	Kd [3] [µM]	Kd [4] [µM]
NC(=O)c1ccc(-c2nc(-c3ccc4c(c3)OCO4)c(-c3ccccn3)[nH]2)cc1 [SB-431542]	> 10	> 10	> 10	> 10
Nc1nc(Nc2ccc(S(N)(=O)=O)cc2)nn1C(=O)c1c(F)cccc1F [JNJ-7706621]	> 10	> 10		> 10
Oc1ccc(-c2nc(-c3ccncc3)c(-c3ccc(F)cc3)[nH]2)cc1 [SB-202190]			> 10	
